# Tested on: 328373-195-R-J1-PDC complex spheroids, viability % test/control
# Assay: Anticancer human tumor 328373-195-R-J1-PDC patient-derived head and neck squamous carcinoma cell line growth inhibition [CLK]
# Conditions: for IC50: curve of first compound; for viability, T/C: stronger effect = lower value
# Procedure, shortened: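 Patient-derived tumor cells grown as complex spheroids with HUVEC endothelial cells and mesenchymal stem cells, treated with drug combinations. Concentrations descend in half-log steps from near clinical Cmax, or from 10 microM if Cmax unknown.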
# [1] = second compound 0.0316 µM, first compound 0.0316 µM
# [2] = second compound 0.0316 µM, first compound 0.1 µM
# [3] = second compound 0.0316 µM, first compound 0.316 µM
# [4] = second compound 0.0316 µM, first compound 1 µM
# [5] = second compound 0.0316 µM, first compound 3.16 µM
# [6] = second compound 0.0316 µM, first compound 10 µM
# [7] = second compound 0.1 µM, first compound 0.0316 µM
# [8] = second compound 0.1 µM, first compound 0.1 µM
# [9] = second compound 0.1 µM, first compound 0.316 µM
# [10] = second compound 0.1 µM, first compound 1 µM
# [11] = second compound 0.1 µM, first compound 3.16 µM
# [12] = second compound 0.1 µM, first compound 10 µM
# [13] = second compound 0.316 µM, first compound 0.0316 µM
# [14] = second compound 0.316 µM, first compound 0.1 µM
# [15] = second compound 0.316 µM, first compound 0.316 µM
# [16] = second compound 0.316 µM, first compound 1 µM
# [17] = second compound 0.316 µM, first compound 3.16 µM
# [18] = second compound 0.316 µM, first compound 10 µM
# [19] = second compound 1 µM, first compound 0.0316 µM
# [20] = second compound 1 µM, first compound 0.1 µM
# [21] = second compound 1 µM, first compound 0.316 µM
# [22] = second compound 1 µM, first compound 1 µM
# [23] = second compound 1 µM, first compound 3.16 µM
# [24] = second compound 1 µM, first compound 10 µM
# [25] = second compound 3.16 µM, first compound 0.0316 µM
# [26] = second compound 3.16 µM, first compound 0.1 µM
# [27] = second compound 3.16 µM, first compound 0.316 µM
# [28] = second compound 3.16 µM, first compound 1 µM
# [29] = second compound 3.16 µM, first compound 3.16 µM
# [30] = second compound 3.16 µM, first compound 10 µM
# [31] = second compound 10 µM, first compound 0.0316 µM
# [32] = second compound 10 µM, first compound 0.1 µM
# [33] = second compound 10 µM, first compound 0.316 µM
# [34] = second compound 10 µM, first compound 1 µM
# [35] = second compound 10 µM, first compound 3.16 µM
# [36] = second compound 10 µM, first compound 10 µM
# 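Also: spheroids exposed to the agents for 7 days.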
compound,measurement,setting,value
CC(Nc1ccc2c(c1)OCCn1cc(N3C(=O)OCC3C(F)F)nc1-2)C(N)=O (stereo unspecified) + CN1CCN(c2cc(C(=O)Nc3cc4cc(-c5cnn(C)c5)ccc4cn3)ccn2)CC1,IC50,second compound 0.0316 µM,> 10000 nM
same,IC50,second compound 0.1 µM,2420 nM
same,IC50,second compound 0.316 µM,< 31.6 nM
same,IC50,second compound 1 µM,< 31.6 nM
same,IC50,second compound 3.16 µM,< 31.6 nM
same,IC50,second compound 10 µM,< 31.6 nM
same,"viability, T/C",[1],90.4%
same,"viability, T/C",[2],88.7%
same,"viability, T/C",[3],87.1%
same,"viability, T/C",[4],78.4%
same,"viability, T/C",[5],58.1%
same,"viability, T/C",[6],53.7%
same,"viability, T/C",[7],75.8%
same,"viability, T/C",[8],74.3%
same,"viability, T/C",[9],73.7%
same,"viability, T/C",[10],67.2%
same,"viability, T/C",[11],44.2%
same,"viability, T/C",[12],45.4%
same,"viability, T/C",[13],34.3%
same,"viability, T/C",[14],28.9%
same,"viability, T/C",[15],28.8%
same,"viability, T/C",[16],23.8%
same,"viability, T/C",[17],17.7%
same,"viability, T/C",[18],17.5%
same,"viability, T/C",[19],0.25%
same,"viability, T/C",[20],0.23%
same,"viability, T/C",[21],1.16%
same,"viability, T/C",[22],0.41%
same,"viability, T/C",[23],1.23%
same,"viability, T/C",[24],1.08%
same,"viability, T/C",[25],1.31%
same,"viability, T/C",[26],0.16%
same,"viability, T/C",[27],1.05%
same,"viability, T/C",[28],0.11%
same,"viability, T/C",[29],2.46%
same,"viability, T/C",[30],2.43%
same,"viability, T/C",[31],0.1%
same,"viability, T/C",[32],1.44%
same,"viability, T/C",[33],0.26%
same,"viability, T/C",[34],0.2%
same,"viability, T/C",[35],2.32%
same,"viability, T/C",[36],1.83%
CC(C)CC(NC(=O)C(Cc1ccccc1)NC(=O)c1cnccn1)B(O)O (stereo unspecified) + CN1CCN(c2cc(C(=O)Nc3cc4cc(-c5cnn(C)c5)ccc4cn3)ccn2)CC1,IC50,second compound 0.0316 µM,1.76 nM
same,IC50,second compound 0.1 µM,1.5 nM
same,IC50,second compound 0.316 µM,< 0.949 nM
same,IC50,second compound 1 µM,< 0.949 nM
same,IC50,second compound 3.16 µM,< 0.949 nM
same,IC50,second compound 10 µM,< 0.949 nM
same,"viability, T/C","second compound 0.0316 µM, first compound 0.000949 µM",98.5%
same,"viability, T/C","second compound 0.0316 µM, first compound 0.003 µM",8.37%
same,"viability, T/C","second compound 0.0316 µM, first compound 0.00949 µM",1.89%
same,"viability, T/C","second compound 0.0316 µM, first compound 0.03 µM",0.2%
same,"viability, T/C","second compound 0.0316 µM, first compound 0.0949 µM",0.17%
same,"viability, T/C","second compound 0.0316 µM, first compound 0.3 µM",2.7%
same,"viability, T/C","second compound 0.1 µM, first compound 0.000949 µM",78.4%
same,"viability, T/C","second compound 0.1 µM, first compound 0.003 µM",6.61%
same,"viability, T/C","second compound 0.1 µM, first compound 0.00949 µM",2.17%
same,"viability, T/C","second compound 0.1 µM, first compound 0.03 µM",0.2%
same,"viability, T/C","second compound 0.1 µM, first compound 0.0949 µM",1.87%
same,"viability, T/C","second compound 0.1 µM, first compound 0.3 µM",2.34%
same,"viability, T/C","second compound 0.316 µM, first compound 0.000949 µM",26.6%
same,"viability, T/C","second compound 0.316 µM, first compound 0.003 µM",1.25%
same,"viability, T/C","second compound 0.316 µM, first compound 0.00949 µM",0.78%
same,"viability, T/C","second compound 0.316 µM, first compound 0.03 µM",0.49%
same,"viability, T/C","second compound 0.316 µM, first compound 0.0949 µM",1.14%
same,"viability, T/C","second compound 0.316 µM, first compound 0.3 µM",4.1%
same,"viability, T/C","second compound 1 µM, first compound 0.000949 µM",0.13%
same,"viability, T/C","second compound 1 µM, first compound 0.003 µM",3.65%
same,"viability, T/C","second compound 1 µM, first compound 0.00949 µM",0.97%
same,"viability, T/C","second compound 1 µM, first compound 0.03 µM",0.1%
same,"viability, T/C","second compound 1 µM, first compound 0.0949 µM",0.09%
same,"viability, T/C","second compound 1 µM, first compound 0.3 µM",2.54%
same,"viability, T/C","second compound 3.16 µM, first compound 0.000949 µM",0.08%
same,"viability, T/C","second compound 3.16 µM, first compound 0.003 µM",4.42%
same,"viability, T/C","second compound 3.16 µM, first compound 0.00949 µM",1.48%
same,"viability, T/C","second compound 3.16 µM, first compound 0.03 µM",0.07%
same,"viability, T/C","second compound 3.16 µM, first compound 0.0949 µM",1.48%
same,"viability, T/C","second compound 3.16 µM, first compound 0.3 µM",1.92%
same,"viability, T/C","second compound 10 µM, first compound 0.000949 µM",2.18%
same,"viability, T/C","second compound 10 µM, first compound 0.003 µM",1.53%
same,"viability, T/C","second compound 10 µM, first compound 0.00949 µM",3.09%
same,"viability, T/C","second compound 10 µM, first compound 0.03 µM",0.11%
same,"viability, T/C","second compound 10 µM, first compound 0.0949 µM",1.22%
same,"viability, T/C","second compound 10 µM, first compound 0.3 µM",2.07%
COc1cccc2c1C(=O)c1c(O)c3c(c(O)c1C2=O)CC(O)(C(=O)CO)CC3OC1CC(N)C(O)C(C)O1 (stereo unspecified) + CNC(=O)c1ccc(Nc2nc(OC3CCCC3)c3c(-c4ccc5nc(C)oc5c4)c[nH]c3n2)c(OC)c1,IC50,second compound 0.0316 µM,< 31.6 nM
same,IC50,second compound 0.1 µM,< 31.6 nM
same,IC50,second compound 0.316 µM,< 31.6 nM
same,IC50,second compound 1 µM,< 31.6 nM
same,IC50,second compound 3.16 µM,< 31.6 nM
same,IC50,second compound 10 µM,< 31.6 nM
same,"viability, T/C",[1],12.6%
same,"viability, T/C",[2],4.2%
same,"viability, T/C",[3],0.6%
same,"viability, T/C",[4],0.17%
same,"viability, T/C",[5],0.12%
same,"viability, T/C",[6],3.04%
same,"viability, T/C",[7],8.2%
same,"viability, T/C",[8],3.67%
same,"viability, T/C",[9],0.55%
same,"viability, T/C",[10],0.13%
same,"viability, T/C",[11],0.09%
same,"viability, T/C",[12],4.34%
same,"viability, T/C",[13],8.9%
same,"viability, T/C",[14],3.98%
same,"viability, T/C",[15],0.5%
same,"viability, T/C",[16],0.07%
same,"viability, T/C",[17],0.07%
same,"viability, T/C",[18],1.96%
same,"viability, T/C",[19],8.51%
same,"viability, T/C",[20],2.74%
same,"viability, T/C",[21],1.07%
same,"viability, T/C",[22],0.06%
same,"viability, T/C",[23],0.07%
same,"viability, T/C",[24],4.59%
same,"viability, T/C",[25],11.5%
same,"viability, T/C",[26],3.82%
same,"viability, T/C",[27],0.22%
same,"viability, T/C",[28],0.06%
same,"viability, T/C",[29],0.93%
same,"viability, T/C",[30],2.69%
same,"viability, T/C",[31],12.1%
same,"viability, T/C",[32],1.9%
same,"viability, T/C",[33],0.16%
same,"viability, T/C",[34],0.1%
same,"viability, T/C",[35],0.6%
same,"viability, T/C",[36],2.6%
